# Key:
# [1] = biological target: T1, 5-HT2 receptor (Rattus norvegicus, UniProt P14842); experiment: 5-HT2 receptor binding ([3H]-Ketanserine displacement, rat cerebral cortices); parameters: species or system rat (male Sprague Dawley); conditions: 37° C. for 10 min, read-out: AFFINITY FOR 5-HT2 RECEPTORS Ki
# T1 construct: Cerebral cortices were homogenized in 10 volumes of ice cold 0.32M sucrose; from tissue; host or cells: cerebral cortex of male Sprague Dawley rats, membranes
# Experimental: Receptor binding studies on 5-HT1A and 5-HT2 receptors were carried out to determine the affinity of the test compounds.
# Rats (male Sprague Dawley, 200-250 g) were used. Cerebral cortices were homogenized in 10 volumes of ice cold 0.32M sucrose. After the centrifugation of the homogenate (1,000×g for 10 min) the supernatant was then recentrifuged at 48,000×g for 15 min. The resulting pellet was resuspended in 10 volumes of 50 mM TRIS buffer (pH 7.4), incubated at 37° C. for 10 min and recentrifuged at 48,000×g for 15 min. The residue was then resuspended in 10 volumes of 50 mM TRIS buffer (pH 7.4).
# The tissue was diluted 1:100 (w:v) in 50 mM TRIS buffer (pH 7.4) to have a final protein concentration of about 200 μg/mL.
# Displacement experiments were performed by incubating the homogenate (980 μL) in the presence of [^3 H]-Ketanserine (0.5-1.0 nM) (10 μL) and of different concentrations of the test compounds dissolved in the assay buffer (10 μL), at 37° C. for 10 min (final volume: 1 mL).
# Non specific binding was determined in the presence of 100 μM Methysergide (10 μL). The separation of [^3 H]-Ketanserine free from that bound to the receptor was carried by the filtration technique (GF/B filters, Whatman). The radioactivity present was counted by liquid scintillation spectrometry.
# (§1) The affinity values (Ki) for the compounds were obtained by non linear least squares regression analysis on the basis of a one binding site model. These values were corrected on the basis of the radioligand occupancy on the receptors according to the equation: Ki=IC50 /(1+[C]/KD), where [C] and KD represent the concentration and the dissociation constant, respectively, of the radioligand used ([^3 H]-Ketanserine).
# The results of some of the compounds of the present invention on the affinity to the 5-HT1A and 5-HT2 receptors are reported in Table 1.
# [2] = tested on: 5-HT2 receptors; experiment: Antagonism of quipazine-induced head twitches; type: in vivo; conditions: ip; head twitches scored within 20 minutes in quipazine-treated animals
# [3] = tested on: 5-HT1A receptors; experiment: Behavioral syndrome: induction of 5-HT1A related syndrome; type: in vivo, rat; parameters: key: sum of symptom scores per rat within 50 min; conditions: within 50 min, mean ± s.e. from 4 rats
# Experimental: The test consists of administering the compound and registering the presence of the above mentioned symptoms within 50 min giving them a score. The results are expressed as the sum of said scores for each rat (Tab. 2).
# Values represent mean± s.e. from 4 rats
# [4] = biological target: T2, 5-HT1A receptor (Rattus norvegicus, UniProt P19327); experiment: 5-HT1A receptor binding ([3H]-8-OH-DPAT displacement, rat hippocampi); parameters: species or system rat (male Sprague Dawley); conditions: 30° C. for 15 min, read-out: AFFINITY FOR 5-HT1A RECEPTORS Ki
# T2 construct: The Hippocampi of these animals were homogenized in 10 volumes of ice cold TRIS buffer; from tissue; host or cells: hippocampus of male Sprague Dawley rats, homogenate
# T2 sequence (P19327 1-422): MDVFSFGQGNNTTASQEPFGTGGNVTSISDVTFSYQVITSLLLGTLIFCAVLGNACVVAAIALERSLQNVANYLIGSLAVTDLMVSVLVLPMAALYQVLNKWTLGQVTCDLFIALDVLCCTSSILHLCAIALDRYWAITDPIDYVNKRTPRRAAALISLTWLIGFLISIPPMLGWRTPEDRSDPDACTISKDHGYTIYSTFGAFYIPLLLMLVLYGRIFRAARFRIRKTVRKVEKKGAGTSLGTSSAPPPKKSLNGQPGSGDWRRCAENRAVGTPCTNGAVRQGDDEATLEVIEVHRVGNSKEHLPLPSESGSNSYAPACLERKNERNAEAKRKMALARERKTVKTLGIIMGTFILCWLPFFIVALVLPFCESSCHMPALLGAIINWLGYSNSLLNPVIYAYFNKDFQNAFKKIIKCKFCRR
# Experimental: Rats (male Sprague Dawley, 200-250 g) were used. The Hippocampi of these animals were homogenized in 10 volumes of ice cold TRIS buffer (pH 7.4). The homogenate was diluted 1:400 (w:v) in the same buffer to have a final protein concentration of about 200 μg/mL, filtered and incubated at 37° C. for 10 min, before use.
# Displacement experiments were performed by incubating the homogenate (980 μL) in the presence of [^3 H]-80H-DPAT (1.0-1,5 nM) (10 μL) and of different concentrations of the test compounds dissolved in the test buffer (10 μL), at 30° C. for 15 min (final volume: 1 mL).
# Non specific binding was determined in the presence of 100 μM 5-HT (10 μL). The separation of [^3 H]-8-OH-DPAT, free from that bound to the receptor, was carried out by the filtration technique (GF/B filters, Whatman). The radioactivity present was counted by liquid scintillation spectrometry.
# as §1, with “by a” for “by”, “The” for “These”, “/(1+[C]/KD),where” for “/(1+[C]/KD), where”, “H]-8-OH-DPAT).” for “H]-Ketanserine).”
# T1 sequence (P14842 whole entry): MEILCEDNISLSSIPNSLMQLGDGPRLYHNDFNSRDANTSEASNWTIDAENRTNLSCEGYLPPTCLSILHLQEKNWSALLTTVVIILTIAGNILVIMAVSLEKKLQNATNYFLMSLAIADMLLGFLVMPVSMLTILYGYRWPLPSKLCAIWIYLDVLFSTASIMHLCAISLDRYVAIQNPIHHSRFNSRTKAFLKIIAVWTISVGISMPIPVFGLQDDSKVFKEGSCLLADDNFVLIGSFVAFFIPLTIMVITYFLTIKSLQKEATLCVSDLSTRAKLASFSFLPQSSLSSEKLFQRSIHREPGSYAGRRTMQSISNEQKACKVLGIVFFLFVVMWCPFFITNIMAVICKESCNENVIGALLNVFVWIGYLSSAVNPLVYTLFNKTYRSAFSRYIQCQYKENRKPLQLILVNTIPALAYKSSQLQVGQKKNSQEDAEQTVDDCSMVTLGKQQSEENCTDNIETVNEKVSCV
SMILES,Ki [1] [nM],DOSE OF COMPOUND (ID50) WHICH ANTAGONIZES THE SYNDROME INDUCED BY QUIPAZINE [2] [μg/kg/ip],INDUCTION OF 5-HT1A RELATED SYNDROME Total score ([3]; dose 8 mg/kg/ip),Ki [4] [nM],INDUCTION OF 5-HT1A RELATED SYNDROME Total score ([3]; dose 32 mg/kg/ip),INDUCTION OF 5-HT1A RELATED SYNDROME Total score ([3]; dose 16 mg/kg/ip)
"Cn1c(=O)n(CCCCN2CCN(c3cccc(C(F)(F)F)c3)CC2)c2ccccc21 [Compound 9, 1-[4-(4-(3-trifluoromethyl-phenyl)piperazin-1-yl)butyl]-3-methyl-2,3-dihydro-1H-benzimidazol-2-one]",14,1720,2.0 ± 0.6,23,,
"Cn1c(=O)n(CCCCN2CCN(c3cccc(Cl)c3)CC2)c2ccccc21 [Compound 17, 1-[4-(4-(3-chlorophenyl)piperazin-1-yl)butyl]-3-methyl-2,3-dihydro-1H-benzimidazol-2-one]",8,178,1.5 ± 0.7,30,10.3 ± 2.9,
"CC(C)n1c(=O)n(CCCCN2CCN(c3cccc(C(F)(F)F)c3)CC2)c2ccccc21 [Compound 15, 1-[4-(4-(3-trifluoromethyl-phenyl)piperazin-1-yl)butyl]-3-isopropyl-2,3-dihydro-1H-benzimidazol-2-one]",20,,,80,,
"O=c1[nH]c2ccccc2n1CCCCN1CCN(c2cccc(Cl)c2)CC1 [Compound 4, 1-[4-(4-(3-chlorophenyl)piperazin-1-yl)butyl]-2,3-dihydro-1H-benzimidazol-2-one]",1.4,250,0.8 ± 0.5,74,,3.3 ± 1.0
"COc1ccc2[nH]c(=O)n(CCCCN3CCN(c4cccc(C(F)(F)F)c4)CC3)c2c1 [Compound 25, 6-methoxy-1-[4-(4-(3-trifluoromethyl-phenyl)piperazin-1-yl)butyl]-2,3-dihydro-1H-benzimidazol-2-one]",25,1420,2.0 ± 1.2,100,,
"O=c1[nH]c2ccccc2n1CCCCN1CCN(c2cccc3ccccc23)CC1 [Compound 30, 1-[4-(4-(1-naphtyl)piperazin-1-yl)butyl]-2,3-dihydro-1H-benzimidazol-2-one]",7,,,10,,
"O=c1[nH]c2ccccc2n1CCCN1CCN(c2cccc(C(F)(F)F)c2)CC1 [Compound 18, 1-[3-(4-(3-trifluoromethyl-phenyl)piperazin-1-yl)propyl]-2,3-dihydro-1H-benzimidazol-2-one]",4,170,,25,12.0 ± 3.2,3.8 ± 2.2
"COc1ccc2[nH]c(=O)n(CCCCN3CCN(c4ccccc4OC)CC3)c2c1 [Compound 24, 6-methoxy-1-[4-(4-(2-methoxyphenyl)piperazin-1-yl)butyl]-2,3-dihydro-1H-benzimidazol-2-one]",65,102,4.3 ± 1.1,12,,
"COc1ccccc1N1CCN(CCCn2c(=O)[nH]c3ccccc32)CC1 [Compound 10, 1-[3-(4-(2-methoxyphenyl)piperazin-1-yl)propyl]-2,3-dihydro-1H-benzimidazol-2-one]",30,3300,3.0 ± 0.4,5,,
"CCn1c(=O)n(CCCCCCN2CCN(c3cccc(C(F)(F)F)c3)CC2)c2ccccc21 [Compound 13, 1-[6-(4-(3-trifluoromethyl-phenyl)piperazin-1-yl)hexyl]-3-ethyl-2,3-dihydro-1H-benzimidazol-2-one]",15,8200,,15,3.8 ± 1.3,
"O=c1[nH]c2ccccc2n1CCCCN1CCN(c2cccc(C(F)(F)F)c2)CC1 [Compound 8, 1-[4-(4-(3-trifluoromethyl-phenyl)piperazin-1-yl)butyl]-2,3-dihydro-1H -benzimidazol-2-one]",9.5,385,3.0 ± 2.7,53,,
"O=c1[nH]c2ccccc2n1CCN1CCN(c2cccc(C(F)(F)F)c2)CC1 [Compound 3, 1-[2-(4-(3-trifluoromethyl-phenyl)piperazin-1-yl)ethyl]-2,3-dihydro-1H-benzimidazol-2-one]",133,498,,50,,5.3 ± 1.2
"COc1ccccc1N1CCN(CCCCn2c(=O)[nH]c3ccccc32)CC1 [Compound 1, 1-[4-(4-(2-methoxy-phenyl)piperazin-1-yl)butyl]-2,3-dihydro-1H-benzimidazol-2-one]",36,720,7.3 ± 0.9,13,,

# Reference: patent US5576318A, “Benzimidazolone derivatives” (Boehringer Ingelheim Italia S.p.A., priority 1991, dated 1996)
